In assay [1] the test system is LPS-induced TNFα in monocyte-derived macrophages (MdM). The assay can be described thus: MdM assay: LPS-triggered TNFα (ELISA). The format is cell-based, human. The settings on record: Homo sapiens, Macrophage, 20 h. The gist of the method:
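Compound added 1 h before LPS (200 ng/mL final) to day-10 macrophages derived from magnetically isolated CD14+ human blood monocytes, DMSO held at 0.2%. TNFα secreted over 20 h of stimulation quantified by ELISA against a standard curve.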
A general note: An ELISA detects its analyte on a solid surface through an enzyme-linked reagent.

Assay [2] deals with LPS triggered IL-10 secretion in monocytes. The assay can be described thus: Monocytes assay: LPS-triggered IL-10 (ELISA). The settings on record: LPS 200 ng/mL, supernatant after 4 h, maximal fold change vs LPS only. The format is cell-based, human. The gist of the method:
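Human CD14+ monocytes, magnetically isolated from buffy-coat PBMCs, were seeded at 100 000 cells/well and preincubated with compound for 1 h at 37° C (0.2% DMSO). LPS was then added at a final 200 ng/mL for 4 h. Supernatant IL-10 was quantified by chemiluminescent sandwich ELISA against a standard curve.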

The mark [3] stands for this setting: monocyte-derived macrophages, LPS 200 ng/mL, supernatant after 20 h, read-out: TNFα EC50.

Read-outs that look alike come from different tables or passages of the source.

As usually defined, the EC50 is the concentration giving half of the maximal effect. Regarding `COc1cc(-c2cnc3cc(OCCN4C5CCC4COC5)ccn23)cc(OC(F)F)c1C(=O)NC1CC1` [compound 193, N-cyclopropyl-2-(difluoromethoxy)-6-methoxy-4-[7-[2-(3-oxa-8-azabicyclo [3.2.1]octan-8-yl)ethoxy]imidazo[1,2-a]pyridin-3-yl]benzamide], in assay [1] (read-out: TNFα EC50 (nM)), the EC50 lay in the range of 100 to 1000 nM. Besides, the “IL-10 FCmax median” value in assay [2] is listed as “+++ (>4.5)”.
Take `COc1cc(-c2cnc3cc(OCCN4CCOCC4)ccn23)cc2c1C(=O)N(CC(F)F)CC2` [compound 218, 2-(2,2-difluoroethyl)-8-methoxy-6-[7-(2-morpholinoethoxy)imidazo [1,2-a]pyridin-3-yl]-3,4-dihydroisoquinolin-1-one]: the EC50 in assay [1] (setting [3]) was 100 to 1000 nM. The “IL-10 FCmax median” value in assay [2] is “+++ (>4.5)”.
In the same order, the values of `COc1cc(-c2cnc3cc(OC[C@H]4COCCO4)ccn23)cc2c1C(=O)N(CC(F)F)CC2` [compound 219, 2-(2,2-difluoroethyl)-6-[7-[[(2R)-1,4-dioxan-2-yl]methoxy]imidazo[1,2-a]pyridin-3-yl]-8-methoxy-3,4-dihydroisoquinolin-1-one] are 1000 to 5000 nM and “+++ (>4.5)”.
Consider `COc1cc(-c2cnc3cc(OCC4(C)CN(C)C4)ccn23)cc(OC(F)F)c1C(=O)NC1CC1` [compound 220, N-cyclopropyl-2-(difluoromethoxy)-4-[7-[(1,3-dimethylazetidin-3-yl)methoxy]imidazo[1,2-a]pyridin-3-yl]-6-methoxy-benzamide], for which the half-maximal effective concentration (EC50) in assay [1] (setting [3]) is 100 to 1000 nM. The “IL-10 FCmax median” value in assay [2] is recorded as “+++ (>4.5)”.
The matching figures for `COc1cc(-c2cnc3cc(OC[C@@H]4COCCO4)ccn23)cc2c1C(=O)N(CC(F)(F)F)CC2` [compound 225, 6-[7-[[(2S)-1,4-dioxan-2-yl]methoxy]imidazo[1,2-a]pyridin-3-yl]-8-methoxy-2-(2,2,2-trifluoroethyl)-3,4-dihydroisoquinolin-1-one]: 100 to 1000 nM and “+++ (>4.5)”.
In the same order, the values of `COc1cc(-c2cnc3cc(OCc4nncn4C)ccn23)cc(OC(F)F)c1C(=O)NC1CC1` [compound 227, N-cyclopropyl-2-(difluoromethoxy)-6-methoxy-4-[7-[(4-methyl-1,2,4-triazol-3-yl)methoxy]imidazo[1,2-a]pyridin-3-yl]benzamide] are over 5000 nM and “++ (>1.5-4.5)”.
The matching figures for `COc1cc(-c2cnc3cc(OCCN4CCOC[C@@H]4C)ccn23)cc(OC(F)F)c1C(=O)NC1CC1` [compound 233, N-cyclopropyl-2-(difluoromethoxy)-6-methoxy-4-[7-[2-[(3S)-3-methylmorpholin-4-yl]ethoxy]imidazo[1,2-a]pyridin-3-yl]benzamide]: 100 to 1000 nM and “+++ (>4.5)”.
Consider `COc1cc(-c2cnc3cc(OCCN4CCOC[C@H]4C)ccn23)cc(OC(F)F)c1C(=O)NC1CC1` [compound 234, N-cyclopropyl-2-(difluoromethoxy)-6-methoxy-4-[7-[2-[(3R)-3-methylmorpholin-4-yl]ethoxy]imidazo[1,2-a]pyridin-3-yl]benzamide], for which the EC50 in assay [1] (setting [3]) lay within 100 to 1000 nM. Also, the “IL-10 FCmax median” value in assay [2] is “+++ (>4.5)”.
In the same order, the values of `COc1cc(-c2cnc3cc(OC[C@H]4COCCO4)ccn23)cc2c1C(=O)NCC2` [compound 242, 6-[7-[[(2R)-1,4-dioxan-2-yl]methoxy]imidazo[1,2-a]pyridin-3-yl]-8-methoxy-3,4-dihydro-2H-isoquinolin-1-one] are 100 to 1000 nM and “++ (>1.5-4.5)”.
For the molecule `COc1cc(-c2cnc3cc(OCC4(F)CN(C(=O)OC(C)(C)C)C4)ccn23)cc2c1C(=O)N(CC(F)(F)F)CC2` [compound 248, tert-butyl 3-fluoro-3-[[3-[8-methoxy-1-oxo-2-(2,2,2-trifluoroethyl)-3,4-dihydroisoquinolin-6-yl]imidazo[1,2-a]pyridin-7-yl]oxymethyl]azetidine-1-carboxylate], in assay [1] (setting [3]), the EC50 is 100 to 1000 nM. Moreover, the “IL-10 FCmax median” value in assay [2] was “+++ (>4.5)”.
